Data reported in patent US20240016831A1 (priority 2020, published 2024).

Columns and labels:
[1] = test system: SARS-CoV-2 clinical isolate; format: cell-based
[2] = format: physicochemical

CCN(CC)CCCC(C)Nc1ccnc2cc(Cl)ccc12 (stereo not drawn) [chloroquine, Chloroquine Phosphate, reference compound]
SARS-CoV-2 virus titre [1]: limit of detection (LOD)

O=C(O)CC(O)(CC(=O)O)C(=O)O [citric acid pH 5.8, citric acid]
cytotoxicity on the LDH assay (Vero E6 cells): low cytotoxicity
in vitro antiviral action against SARS-CoV-2 [1]: high in vitro antiviral action

OC[C@@H](O)[C@@H](O)[C@H](O)[C@H](O)CO [mannitol, D-mannitol]
cumulative levels of NO ([2]; pH 5.8): 1400 nmol NO per mg nitrite
difference in cumulative NO with and without mannitol ([2]; pH 6.2): differences have disappeared

OC[C@@H](O)[C@H](O)[C@@H](O)CO [xylitol]
cumulative nitric oxide evolution ([2]; after 3000 s): about 20000 nmol per mg nitrite
